{"source": "patent US20260085082A1", "about": "“KDM1A INHIBITORS FOR THE TREATMENT OF DISEASE” (Imago Biosciences, Inc., priority 2022, published 2026)", "key": {"LSD1": {"target": "LSD1 (Homo sapiens, UniProt O60341)", "assay": "LSD1 10-dose IC50 fluorescence coupling enzyme assay (HRP/Amplex Red, resorufin)", "assay_type": "biochemical", "details": "10 M histone H3(1-21)K4me2 peptide substrate; 3-fold serial dilution in duplicate starting at 100 μM", "protocol": "Compounds were tested in a 10-dose IC50 mode fluorescence coupling enzyme assay with 3-fold serial dilution in duplicate starting at 100 μM. The production of FAD-dependent H2O2 as a result of demethylase activity of LSD1 on […] histone H3(1-21)K4me2 peptide substrate was measured by coupling with HRP and Amplex Red to yield resorufin (fluorescence measured at Ex/Em=535/590 nm on EnVision, Perkin Elmer)."}, "MV4;11 cells": {"system": "MV4;11 cells", "assay": "Cell Titer-Glo Luminescent Cell Viability Assay, cell growth inhibition against MV4;11 cells", "assay_type": "cell-based", "protocol": "Cell growth inhibition against MV4;11 cells was confirmed for the synthetic compounds. The Cell Titer-Glo Luminescent Cell Viability Assay (Promega, USA) was used to determine the number of viable cells in culture based on quantitation of the ATP present, which signals the presence of metabolically active cells. This assay was run in a 96-well plate format arrayed in a 10-point dose curve, ranging from 0 to 50 μM with 4-fold dilutions for each compound. Cells are seeded on Day 0 at 3750 cells per well. At Day 5, a portion of each well is assayed for viability according to the Cell Titer-Glo protocol. Briefly, cells/plates were centrifuged at 1100×g for 5 minutes. 100 μL of media was removed from each well and replaced with 100 μL of CellTiter-Glo. The plates were shaken at room temperature for 10 minutes and measured on a luminescence plate reader. Another portion of each well from the Day 5 plate is used to seed a new 96 plate containing fresh compound and media set up in the equivalent 10-point dose curve array in order to continue the cell growth inhibition assay for another 5 days. A final timepoint is collected at Day 10 using the Cell Titer-Glo protocol. Luminescence was detected on an EnVision® Multilabel Plate Reader (Perkin Elmer, Waltham, Mass.) and IC50 determination was made using Graph Pad Prism software."}, "[1]": {"details": "Homo sapiens, MV4-11, 120 h, MV4;11 cells, Day 5, 10-point dose curve 0 to 50 μM, read-out: Cell Titer Glo IC50 (5 d)"}, "[2]": {"details": "Homo sapiens, MV4-11, MV4;11 cells, Day 10 (re-seeded at Day 5 with fresh compound), 10-point dose curve 0 to 50 μM, read-out: Cell Titer Glo IC50 (10 d)"}}, "note": "Where two headings read alike, the source gives them in different places.", "data": [{"smiles": "COc1ccc(-n2nc(NC(=O)[C@H]3CCC[C@H](N)C3)cc2-c2ccc(C#N)c(F)c2)cc1", "note": "[Example 90, (1S,3S)-3-amino-N-(5-(4-cyano-3-fluorophenyl)-1-(4-methoxyphenyl)-1H-pyrazol-3-yl)cyclohexane-1-carboxamide 2,2,2-trifluoroacetate]", "values": [{"measurement": "IC50", "setting": "LSD1", "value": "< 0.5", "unit": "µM"}, {"measurement": "IC50", "setting": "MV4;11 cells; [1]", "value": "1 to 10", "unit": "µM"}]}, {"smiles": "N#Cc1ccc(-c2cc(C(=O)N3CCC[C@@H](N)C3)nn2-c2ccc(N3CCC(C#N)CC3)cc2)cc1F", "note": "[Example 48, (R)-1-(4-(3-(3-aminopiperidine-1-carbonyl)-5-(4-cyano-3-fluorophenyl)-1H-pyrazol-1-yl)phenyl)piperidine-4-carbonitrile 2,2,2-trifluoroacetate]", "values": [{"measurement": "IC50", "setting": "LSD1", "value": "< 0.5", "unit": "µM"}, {"measurement": "IC50", "setting": "MV4;11 cells; [2]", "value": "< 0.5", "unit": "µM"}]}, {"smiles": "N#Cc1ccc(-c2cc(C(=O)N3CCC[C@@H](N)C3)nn2-c2ccc(N3CCC(OCCO)CC3)cc2)cc1F", "note": "[Example 45, (R)-4-(3-(3-aminopiperidine-1-carbonyl)-1-(4-(4-(2-hydroxyethoxy)piperidin-1-yl)phenyl)-1H-pyrazol-5-yl)-2-fluorobenzonitrile]", "values": [{"measurement": "IC50", "setting": "LSD1", "value": "< 0.5", "unit": "µM"}, {"measurement": "IC50", "setting": "MV4;11 cells; [2]", "value": "< 0.5", "unit": "µM"}]}, {"smiles": "Cn1cc2cc(-n3nc(-c4ccc(C#N)c(F)c4)cc3C(=O)N3CCCC(N)C3)ccc2n1", "note": "(centres unmarked) [Example 41, 4-(5-(3-Aminopiperidine-1-carbonyl)-1-(2-methyl-2H-indazol-5-yl)-1H-pyrazol-3-yl)-2-fluorobenzonitrile]", "values": [{"measurement": "IC50", "setting": "LSD1", "value": "< 0.5", "unit": "µM"}, {"measurement": "IC50", "setting": "MV4;11 cells; [1]", "value": "1 to 10", "unit": "µM"}]}, {"smiles": "Cn1ncc2cc(-n3nc(C(=O)N4CCC[C@@H](N)C4)cc3-c3ccc(C#N)c(F)c3)ccc21", "note": "[Example 43, (R)-4-(3-(3-aminopiperidine-1-carbonyl)-1-(1-methyl-1H-indazol-5-yl)-1H-pyrazol-5-yl)-2-fluorobenzonitrile 2,2,2-trifluoroacetate]", "values": [{"measurement": "IC50", "setting": "LSD1", "value": "< 0.5", "unit": "µM"}, {"measurement": "IC50", "setting": "MV4;11 cells; [2]", "value": "< 0.5", "unit": "µM"}]}, {"smiles": "N#Cc1ccc(-c2cc(C(=O)N3CCC[C@H](N)C3)nn2-c2ccc(N3CCCC3)cc2)cc1F", "note": "[Example 61, (S)-4-(3-(3-aminopiperidine-1-carbonyl)-1-(4-(pyrrolidin-1-yl)phenyl)-1H-pyrazol-5-yl)-2-fluorobenzonitrile 2,2,2-trifluoroacetate]", "values": [{"measurement": "IC50", "setting": "LSD1", "value": "< 0.5", "unit": "µM"}, {"measurement": "IC50", "setting": "MV4;11 cells; [1]", "value": "< 0.5", "unit": "µM"}, {"measurement": "IC50", "setting": "MV4;11 cells; [2]", "value": "< 0.5", "unit": "µM"}]}, {"smiles": "Cc1ccc(-n2nc(-c3ccc(C#N)c(F)c3)cc2C(=O)N2CCC(N)CC2)cc1", "note": "[Example 13, 4-(5-(4-Aminopiperidine-1-carbonyl)-1-(p-tolyl)-1H-pyrazol-3-yl)-2-fluorobenzonitrile]", "values": [{"measurement": "IC50", "setting": "LSD1", "value": "1 to 10", "unit": "µM"}, {"measurement": "IC50", "setting": "MV4;11 cells; [1]", "value": "1 to 10", "unit": "µM"}]}, {"smiles": "CN1CCN(c2ccc(-n3nc(C(=O)N4CCC[C@@H](N)C4)cc3-c3ccc(C#N)c(F)c3)cc2)CC1", "note": "[Example 60, (R)-4-(3-(3-aminopiperidine-1-carbonyl)-1-(4-(4-methylpiperazin-1-yl)phenyl)-1H-pyrazol-5-yl)-2-fluorobenzonitrile]", "values": [{"measurement": "IC50", "setting": "LSD1", "value": "< 0.5", "unit": "µM"}, {"measurement": "IC50", "setting": "MV4;11 cells; [1]", "value": "0.5 to 1", "unit": "µM"}, {"measurement": "IC50", "setting": "MV4;11 cells; [2]", "value": "< 0.5", "unit": "µM"}]}, {"smiles": "COC1CCN(c2ccc(-n3nc(C(=O)N4CCCC(N)C4)cc3-c3ccc(C#N)c(F)c3)cc2)CC1", "note": "(stereo in doubt) [Example 64, (R)-4-(3-(3-aminopiperidine-1-carbonyl)-1-(4-(4-methoxypiperidin-1-yl)phenyl)-1H-pyrazol-5-yl)-2-fluorobenzonitrile 2,2,2-trifluoroacetate]", "values": [{"measurement": "IC50", "setting": "LSD1", "value": "< 0.5", "unit": "µM"}, {"measurement": "IC50", "setting": "MV4;11 cells; MV4;11 cells, Day 5, 10-point dose curve 0 to 50 μM, 2,2,2-trifluoroacetate, read-out: Cell Titer Glo IC50 (5 d)", "value": "< 0.5", "unit": "µM"}, {"measurement": "IC50", "setting": "MV4;11 cells; MV4;11 cells, Day 10 (re-seeded at Day 5 with fresh compound), 10-point dose curve 0 to 50 μM, read-out: Cell Titer Glo IC50 (10 d)", "value": "< 0.5", "unit": "µM"}]}, {"smiles": "COc1ccc(-n2nc(NC(=O)C3CCNCC3)cc2-c2ccc(C#N)c(F)c2)cc1", "note": "[Example 92, N-(5-(4-cyano-3-fluorophenyl)-1-(4-methoxyphenyl)-1H-pyrazol-3-yl)piperidine-4-carboxamide 2,2,2-trifluoroacetate]", "values": [{"measurement": "IC50", "setting": "LSD1", "value": "0.5 to 1", "unit": "µM"}, {"measurement": "IC50", "setting": "MV4;11 cells; [1]", "value": "1 to 10", "unit": "µM"}]}, {"smiles": "COC1CCN(c2ccc(-n3nc(-c4ccc(C#N)c(F)c4)cc3C(=O)N3CCC[C@@H](N)C3)cc2)CC1", "note": "[Example 57, (R)-4-(5-(3-aminopiperidine-1-carbonyl)-1-(4-(4-methoxypiperidin-1-yl)phenyl)-1H-pyrazol-3-yl)-2-fluorobenzonitrile 2,2,2-trifluoroacetate]", "values": [{"measurement": "IC50", "setting": "LSD1", "value": "< 0.5", "unit": "µM"}, {"measurement": "IC50", "setting": "MV4;11 cells; [2]", "value": "1 to 10", "unit": "µM"}]}, {"smiles": "CN1CCN(c2ccc(-n3nc(C(=O)N4CCC[C@@H](N)C4)cc3-c3ccc(C#N)c(F)c3)c(F)c2)CC1", "note": "[Example 67, (R)-4-(3-(3-aminopiperidine-1-carbonyl)-1-(2-fluoro-4-(4-methylpiperazin-1-yl)phenyl)-1H-pyrazol-5-yl)-2-fluorobenzonitrile]", "values": [{"measurement": "IC50", "setting": "LSD1", "value": "< 0.5", "unit": "µM"}]}, {"smiles": "COc1ccc(-n2ncc(C(=O)N3CCCC(N)C3)c2-c2ccc(C#N)cc2)cc1", "note": "(centres unmarked) [Example 88, 4-(4-(3-aminopiperidine-1-carbonyl)-1-(4-methoxyphenyl)-1H-pyrazol-5-yl)benzonitrile]", "values": [{"measurement": "IC50", "setting": "LSD1", "value": "> 10", "unit": "µM"}, {"measurement": "IC50", "setting": "MV4;11 cells; [1]", "value": "> 10", "unit": "µM"}]}, {"smiles": "Cn1cc(-c2ccc(-n3nc(C(=O)N4CCC[C@@H](N)C4)cc3-c3ccc(C#N)c(F)c3)cc2)cn1", "note": "[Example 66, (R)-4-(3-(3-aminopiperidine-1-carbonyl)-1-(4-(1-methyl-1H-pyrazol-4-yl)phenyl)-1H-pyrazol-5-yl)-2-fluorobenzonitrile 2,2,2-trifluoroacetate]", "values": [{"measurement": "IC50", "setting": "LSD1", "value": "< 0.5", "unit": "µM"}, {"measurement": "IC50", "setting": "MV4;11 cells; [2]", "value": "< 0.5", "unit": "µM"}]}, {"smiles": "COc1ccc(-n2nc(-c3ccc(C#N)cc3)cc2C(=O)N2CCCC(N)C2)cc1", "note": "(centres unmarked) [Example 4, 4-(5-(3-Aminopiperidine-1-carbonyl)-1-(4-methoxyphenyl)-1H-pyrazol-3-yl)benzonitrile]", "values": [{"measurement": "IC50", "setting": "LSD1", "value": "< 0.5", "unit": "µM"}, {"measurement": "IC50", "setting": "MV4;11 cells; [1]", "value": "1 to 10", "unit": "µM"}]}, {"smiles": "COc1ccc(-n2nc(C(=O)N3CCC[C@@H](N)C3)cc2-c2ccc(C#N)c(F)c2)cc1", "note": "[Example 18, (R)-4-(3-(3-Aminopiperidine-1-carbonyl)-1-(4-methoxyphenyl)-1H-pyrazol-5-yl)-2-fluorobenzonitrile]", "values": [{"measurement": "IC50", "setting": "LSD1", "value": "< 0.5", "unit": "µM"}, {"measurement": "IC50", "setting": "MV4;11 cells; [1]", "value": "< 0.5", "unit": "µM"}, {"measurement": "IC50", "setting": "MV4;11 cells; [2]", "value": "< 0.5", "unit": "µM"}]}, {"smiles": "Cc1ccc(-n2nc(C(=O)N3CCCC(CN)C3)cc2-c2ccc(C#N)c(F)c2)cc1", "note": "(centres unmarked) [Example 7, 4-(3-(3-(Aminomethyl)piperidine-1-carbonyl)-1-(p-tolyl)-1H-pyrazol-5-yl)-2-fluorobenzonitrile]", "values": [{"measurement": "IC50", "setting": "LSD1", "value": "< 0.5", "unit": "µM"}, {"measurement": "IC50", "setting": "MV4;11 cells; [1]", "value": "1 to 10", "unit": "µM"}]}, {"smiles": "COc1ccc(-n2nc(C(=O)N3CCC(NC(=N)N)CC3)cc2-c2ccc(C#N)c(F)c2)cc1", "note": "[Example 30, 1-(1-(5-(4-Cyano-3-fluorophenyl)-1-(4-methoxyphenyl)-1H-pyrazole-3-carbonyl)piperidin-4-yl)guanidine 2,2,2-trifluoroacetate]", "values": [{"measurement": "IC50", "setting": "LSD1", "value": "1 to 10", "unit": "µM"}]}, {"smiles": "COc1cc(N2CCNC(=O)C2)ccc1-n1nc(C(=O)N2CCC[C@@H](N)C2)cc1-c1ccc(C#N)c(F)c1", "note": "[Example 51, (R)-4-(3-(3-aminopiperidine-1-carbonyl)-1-(2-methoxy-4-(3-oxopiperazin-1-yl)phenyl)-1H-pyrazol-5-yl)-2-fluorobenzonitrile]", "values": [{"measurement": "IC50", "setting": "LSD1", "value": "< 0.5", "unit": "µM"}]}, {"smiles": "CN1CCN(c2ccc(-n3nc(-c4ccc(C#N)c(F)c4)cc3C(=O)N3CCC[C@@H](N)C3)cc2F)CC1", "note": "[Example 80, (R)-4-(5-(3-aminopiperidine-1-carbonyl)-1-(3-fluoro-4-(4-methylpiperazin-1-yl)phenyl)-1H-pyrazol-3-yl)-2-fluorobenzonitrile 2,2,2-trifluoroacetate]", "values": [{"measurement": "IC50", "setting": "LSD1", "value": "< 0.5", "unit": "µM"}]}, {"smiles": "N#Cc1ccc(-c2cc(C(=O)N3CCC[C@@H](N)C3)nn2-c2ccc(N3CCNC(=O)C3)cc2)cc1F", "note": "[Example 49, (R)-4-(3-(3-aminopiperidine-1-carbonyl)-1-(4-(3-oxopiperazin-1-yl)phenyl)-1H-pyrazol-5-yl)-2-fluorobenzonitrile]", "values": [{"measurement": "IC50", "setting": "LSD1", "value": "< 0.5", "unit": "µM"}]}]}
